According to the CheMixHub viscosity set:
Values joined by “and” are separate entries in the source; they are usually repeats but may differ in a detail not shown here. Identical values can stand only once. ± gives the uncertainty stated by the source.

Legend:
[1] = xn = mol fraction of the nth substance listed

O=CO
viscosity
Settings	293.15 K	298.15 K	303.15 K	308.15 K	313.15 K	318.15 K	323.15 K
101 kPa	–	–	1.43 ± 0.029 mPa·s and 1.434 ± 0.029 mPa·s (2×)	1.304 ± 0.034 mPa·s	–	1.089 ± 0.029 mPa·s	0.9767 ± 0.026 mPa·s
101.33 kPa	1.959 ± 0.02 mPa·s	1.51 ± 0.08 mPa·s	1.36 ± 0.07 mPa·s	1.25 ± 0.06 mPa·s	1.291 ± 0.013 mPa·s and 1.15 ± 0.06 mPa·s	–	–

CCCCCBr
101 kPa
Settings	viscosity [mPa·s]
293.15 K	0.798 ± 0.017
303.15 K	0.709 ± 0.015
308.15 K	0.6509 ± 0.0054
313.15 K	0.637 ± 0.014
323.15 K	0.574 ± 0.012

CCn1cc[n+](CCOC)c1.N#C[S-]
100 kPa
Settings	viscosity [mPa·s]
293.15 K	70.77 ± 3.9
298.15 K	55.77 ± 3
303.15 K	44.34 ± 2.4
308.15 K	36 ± 2
313.15 K	29.73 ± 1.6
318.15 K	24.89 ± 1.4

CCCCCCCCn1cc[n+](C)c1.[Cl][Fe-]([Cl])([Cl])[Cl]
101 kPa
Settings	viscosity [mPa·s]
293.15 K	167 ± 9.3
298.15 K	133.2 ± 6.8
303.15 K	106 ± 5
308.15 K	84.71 ± 3.8
313.15 K	68.3 ± 2.9
318.15 K	55.87 ± 2.3
323.15 K	46.6 ± 2

O=CC(Br)(Br)Br
101.33 kPa
Settings	viscosity [mPa·s]
293.15 K	6.81 ± 0.09
313.15 K	3.72 ± 0.06

CC/C(C)=N/O
101.3 kPa
Settings	viscosity
293.15 K	4.767 ± 0.031 mPa·s
298.15 K	4.016 ± 0.026 mPa·s and 4.02 ± 0.026 mPa·s
303.15 K	3.437 ± 0.022 mPa·s

CCCC[N+](CCCC)(CCCC)CCCC.[OH-]
viscosity [mPa·s]
Settings	298.15 K	303.15 K	308.15 K	313.15 K
100 kPa	6.69 ± 0.14	6.49 ± 0.14	6.29 ± 0.13	6.13 ± 0.13
101 kPa	6.69	6.49	6.29	6.13

CC(Cl)(Cl)Cl
viscosity
Settings	101 kPa	101.3 kPa	101.32 kPa	101.33 kPa
303.15 K	0.7243 ± 0.0059 mPa·s and 0.7245 ± 0.019 mPa·s	0.7275 ± 0.0062 mPa·s	0.642 ± 0.064 mPa·s and 0.7243 ± 0.0088 mPa·s	0.7243 ± 0.0053 mPa·s
313.15 K	–	–	0.583 ± 0.058 mPa·s	–

C=CC[n+]1ccn(C)c1.[Cl-]
Settings	viscosity [mPa·s]
298.15 K, 101 kPa	254.5 ± 10

COC(=O)c1ccccc1C(=O)OC
101 kPa
Settings	viscosity [mPa·s]
293.15 K	17.63 ± 0.54
298.15 K	13.8 ± 0.42
303.15 K	11.07 ± 0.34
308.15 K	9.064 ± 0.28
313.15 K	7.558 ± 0.23
318.15 K	6.4 ± 0.2
323.15 K	5.493 ± 0.17

CCCCCBr + C1CCCCC1
[1], 308.15 K, 101 kPa
Settings	viscosity [mPa·s]
x2 = 0.0975	0.6428 ± 0.0052
x2 = 0.1991	0.6363 ± 0.005
x2 = 0.2997	0.6323 ± 0.0049
x2 = 0.398	0.6305 ± 0.0048
x2 = 0.5025	0.6321 ± 0.0047
x2 = 0.5837	0.6355 ± 0.0046
x2 = 0.695	0.645 ± 0.0046
x2 = 0.8018	0.6614 ± 0.0046
x2 = 0.9007	0.6894 ± 0.0047

CC(C)C1CCCCC1
100 kPa
Settings	viscosity
293.15 K	1.098 ± 0.023 mPa·s
303.15 K	0.949 ± 0.02 mPa·s and 0.95 ± 0.02 mPa·s
308.15 K	0.885 ± 0.019 mPa·s and 0.889 ± 0.019 mPa·s
313.15 K	0.83 ± 0.018 mPa·s and 0.833 ± 0.018 mPa·s
318.15 K	0.781 ± 0.017 mPa·s and 0.783 ± 0.017 mPa·s
323.15 K	0.736 ± 0.016 mPa·s

CC(C)C1CCCCC1 + CCCCCCCCCCCCC
viscosity [mPa·s], [1], 100 kPa
Settings	x1 = 0.1077	x1 = 0.1971	x1 = 0.3025	x1 = 0.3985	x1 = 0.5016	x1 = 0.5996	x1 = 0.695	x1 = 0.799	x1 = 0.8956
293.15 K	1.773 ± 0.038	1.7 ± 0.037	1.619 ± 0.035	1.549 ± 0.033	1.473 ± 0.032	1.4 ± 0.03	1.328 ± 0.028	1.253 ± 0.027	1.18 ± 0.025
298.15 K	1.615 ± 0.035	1.551 ± 0.033	1.48 ± 0.032	1.419 ± 0.03	1.351 ± 0.029	1.287 ± 0.028	1.224 ± 0.026	1.158 ± 0.025	1.094 ± 0.023
303.15 K	1.476 ± 0.032	1.421 ± 0.031	1.358 ± 0.029	1.304 ± 0.028	1.245 ± 0.027	1.188 ± 0.025	1.134 ± 0.024	1.075 ± 0.023	1.017 ± 0.022
308.15 K	1.356 ± 0.029	1.308 ± 0.028	1.253 ± 0.027	1.205 ± 0.026	1.153 ± 0.025	1.103 ± 0.024	1.055 ± 0.023	1.003 ± 0.021	0.95 ± 0.02
313.15 K	1.251 ± 0.027	1.209 ± 0.026	1.16 ± 0.025	1.118 ± 0.024	1.072 ± 0.023	1.028 ± 0.022	0.984 ± 0.021	0.938 ± 0.02	0.889 ± 0.019
318.15 K	1.16 ± 0.025	1.123 ± 0.024	1.078 ± 0.023	1.041 ± 0.022	1 ± 0.021	0.961 ± 0.021	0.922 ± 0.02	0.88 ± 0.019	0.836 ± 0.018
323.15 K	1.078 ± 0.023	1.045 ± 0.023	1.005 ± 0.022	0.972 ± 0.021	0.935 ± 0.02	0.9 ± 0.019	0.865 ± 0.018	0.827 ± 0.018	0.787 ± 0.017

CC(Cl)(Cl)Cl + CCC(C)=O
[1], 298.15 K, 101.33 kPa
Settings	viscosity [mPa·s]
x1 = 0.098	0.4094 ± 0.0045
x1 = 0.201	0.438 ± 0.0048
x1 = 0.299	0.4678 ± 0.005
x1 = 0.398	0.5001 ± 0.0053
x1 = 0.499	0.5361 ± 0.0056
x1 = 0.6	0.5757 ± 0.0059
x1 = 0.7	0.6196 ± 0.0063
x1 = 0.8	0.669 ± 0.0067
x1 = 0.9	0.7256 ± 0.0072

CC(Cl)(Cl)Cl + CCCCCCO
[1], 298.15 K, 101.33 kPa
Settings	viscosity [mPa·s]
x1 = 0.101	3.824 ± 0.036
x1 = 0.2	3.188 ± 0.03
x1 = 0.301	2.631 ± 0.025
x1 = 0.402	2.142 ± 0.021
x1 = 0.502	1.744 ± 0.017
x1 = 0.601	1.43 ± 0.014
x1 = 0.701	1.188 ± 0.012
x1 = 0.8	1.002 ± 0.0098

CCCCCCCCCCCCCCCC[N+](C)(C)CCOCCO.Cc1cc(Cl)ccc1OCC(=O)[O-] + CCCCCCCCCCCCCCCC[N+](C)(C)CCOCCO.Cc1cc(Cl)ccc1O[C@H](C)C(=O)[O-]
[1], 100 kPa, x1 = 0.58
Settings	viscosity
293.15 K	4543 ± 970 mPa·s and 4543 ± 280 mPa·s
303.15 K	1909 ± 100 mPa·s
313.15 K	928.5 ± 42 mPa·s
323.15 K	493.4 ± 19 mPa·s
